Reference: US20260053750A1, “INHALABLE COMPOSITIONS OF CDK9 INHIBITORS” (THE REGENTS OF THE UNIVERSITY OF CALIFORNIA, priority 2022, published 2026)

Assays:
[1] = encapsulation and release in microparticles of the invention; assay type: physicochemical
[2] = test system: lung fibrosis mouse model (bleomycin); test: bleomycin lung fibrosis mouse model, i.p. treatment; assay type: in vivo, C57B/L6 mice; conditions: vs BLM+ vehicle control
Experimental: The effects of flavopiridol on lung inflammation and fibrosis were assessed in a lung fibrosis mouse model. C57B/L6 mice were treated with bleomycin (BLM) by microsprayer. At day 7 after BLM treatment, alveolar damage became apparent in the treated mice. At day 9, the mice were divided into 4 groups of 8 animals each. Each group received its corresponding treatment every other day starting at Day 9. At Day 30, the animals were sacrificed and assessed. One group received only phosphate buffer saline (PBS). One group received 28 mg/kg nitedanib by intraperitoneal injection (i.p.). One group received 2.5 mg/kg of flavopiridol i.p. and one group received 28 mg/kg idebenone i.p. Survival and lung morphology were assessed at day 30. […] Lung tissue sections from the treated animals were stained with Masson's trichome staining protocol and exemplary images are shown in FIG. 8D.

[3] = cited from earlier work
[4] = test system: TNF-stimulated luciferase reporter expression, driven by a NF-kB responsive promoter, in HEK293 cells; test: NF-kB luciferase reporter bioactivity assay; assay type: cell-based, Human; conditions: 300 nM flavopiridol, 0.6 nM TNF-α, 24 h
Experimental: The bioactivity of flavopiridol released from ILDF particles was determined by a luciferase reporter assay as described previously. ILDF particles (18.94 mg) containing 0.190% (w/w) flavopiridol was dissolved in DMEM with 10% FBS to a stock solution of 8.9×10^4 nM flavopiridol. The bioactivity of flavopiridol was measured by its ability to suppress TNF-stimulated luciferase reporter expression, driven by a NF-kB responsive promoter. Human embryonic kidney 293 cells (HEK293) cells (ATCC) harboring a NF-kB-driven luciferase reporter were seeded in 96-well plates (10,000 cells/well in triplicates) 24 hours before the experiment. Cells were then treated with 100 μL of media containing 0.6 nM recombinant human TNF-α (Peprotech), in the presence or absence of various amount of dissolved flavopiridol formulation or blank formulation equivalent. After 24 h, 100 μL of 2× lysis buffer (Invitrogen) containing luciferase substrate was added directly to each well. Luminescence was measured in a plate reader (SpectraMax iD3, Molecular Devices). Experiments were performed in triplicate (N=3) from one batch of particles, and results were reported as mean±SD.

[5] = test system: pulmonary fibrosis in mice using bleomycin; test: bleomycin pulmonary fibrosis in mice, inhaled flavopiridol; assay type: in vivo; conditions: every two days from eight days post-bleomycin, 14-day treatment
Experimental: Our experimental model involved the induction of pulmonary fibrosis in mice using bleomycin, followed by the administration of inhaled flavopiridol during the early fibrotic phase of the model. Eight days post-intratracheal instillation of bleomycin, mice were treated with either a vehicle or inhaled flavopiridol every two days. After a 14-day treatment course, lung tissues were harvested and subjected to histological and biochemical analysis. A notable loss of body weight observed in bleomycin-exposed mice served as an indicator of successful fibrosis induction (FIG. 9).

NFκB target genes = test: suppression of IL-1β-induced primary inflammatory response genes in human cell culture; assay type: cell-based
Experimental: CDK9 inhibitors exert effects on the inflammatory response pathway. For example, the pharmacological CDK9 inhibitor flavopiridol effectively suppresses the activation of a broad range of primary inflammatory response genes, in human cell culture treated with IL-1β for 5 hours (see FIG. 1). Among the 67 different genes (out of 84 total NFκB target genes tested) that were induced by IL-1β, 59 were repressed by flavopiridol co-treatment (including the most-characterized pro-inflammatory cytokines such as IL-1β, Il-6, and TNF). The average magnitude of repression is >86% of maximum induction. […] Importantly, house-keeping genes and non-inducible genes are not affected by CDK9 inhibition short term, indicating potential reduction in side effects.

[6] = 2.5 mg/kg i.p. every other day from Day 9, Day 30

With `CCc1cnn2c(NCc3ccc[n+]([O-])c3)cc(N3CCCC[C@H]3CCO)nc12` [Dinaciclib] the “encapsulation and release in microparticles” value [1] was “not encapsulated effectively or released appropriately”.
In the case of `CN1CC[C@H](c2c(O)cc(O)c3c(=O)cc(-c4ccccc4Cl)oc23)[C@H](O)C1` [flavopiridol, 2-(2-chlorophenyl)-5,7-dihydroxy-8-[(3S,4R)-3-hydroxy-1-methyl-4-piperidinyl]-4-chromenone], the hydroxyproline level [2, 6] is reported as “statistically significant lower level of hydroxyproline”, the “percentage of stained area (Masson's trichome, lung sections)” value [2, 6] is reported as “statistically significant decrease in percentage of stained area” and the survival rate ([2]; 2.5 mg/kg i.p. every other day from Day 9, to Day 30) is reported as “statistically significant difference in survival rate”. The body weight ([2]; 2.5 mg/kg i.p. every other day from Day 9) was “generally maintained a higher body weight”, the in-vivo half-life [3] was “under 6 hours” and the TNF-α-stimulated luciferase activity [4] was “the luciferase activation was suppressed”. For the same molecule, the hydroxyproline levels [5] was “appeared to suppress the bleomycin-induced increase of hydroxyproline levels”, the survival rate ([5]; vs vehicle group) was “higher survival rate” and the “average magnitude of repression” value (NFκB target genes; human cell culture treated with IL-1β for 5 hours, flavopiridol co-treatment) was > 86 % of maximum induction. The “number of IL-1β-induced genes repressed by flavopiridol co-treatment” value (NFκB target genes; of 67 genes induced by IL-1β (84 NFκB target genes tested), human cell culture, IL-1β for 5 hours) was 59.
